Measurements from patent US11957783B2, “Topical immunosensitizers to treat viral and fungal infections” (Squarex, LLC, priority 2018, dated 2024).

System: peripheral blood mononuclear cells (PBMC)
Assay: Cytokine and immune-function gene expression of PBMC in vitro (qRT-PCR, 41 immune-related genes)
Format: cell-based, human
Conditions: for Ratio of absolute IFNG gene expression in group A vs. Groups B + C pooled: group A day 57 after SADBE
Procedure: After a screening visit at which blood was drawn to test for IgG antibody against HSV-1 and subjects were interviewed for inclusion/exclusion criteria, selected subjects returned for blood draws on day 1. After the blood draw on day 1, subjects in group A only were dosed with SADBE. A petrolatum donut was applied with a cotton swab to form about a 1 cm diameter donut on skin on the inner aspect of the upper arm. Then a separate cotton swab was dipped in a 2% SADBE solution (w/v) in DMSO, and the swab was then used to apply about 10-20 mg of solution over about a 1 cm diameter circle within the petrolatum donut. Immediately after application, the application site was covered with TEGADERM. Subjects were advised to remove the TEGADERM and rinse and wipe the spot three hours later. The group A subjects then returned for blood draws on days 15 and 57 and were queried about adverse events on those dates.
PBMC were isolated using SepMate PBMC isolation tubes (Stem Cell Technologies, Vancouver, Canada) and Ficoll-Paque according to the manufacturer's instructions. PBMC were isolated and suspended in negative control medium at 2 million cells/ml. PBMC suspension (100 μL) was added to 100 μL of medium in quadruplicate in 96-well plates. The plates were prepared in advance and stored at −70° C. The wells were in five different conditions in quadruplicate with these final concentrations after addition of the 100 μL of PBMC suspension in negative control medium. • 1. Negative control in medium (RPMI with glutamine and pen/strep, supplemented with 10% human A/B serum). • 2. Medium plus 16 μg/ml protein from heat-inactivated HSV-1-infected Vero cell extracts. • 3. Medium plus heat-inactivated HSV-1 cell-free virus at a final 7.5 million pfu/ml. • 4. Medium plus Candida cell extract. (Greer item number M15A50, 20,000 pnu/ml allergenic extract mixed molds Candida albicans, was diluted 1/50 into medium). • 5. Positive control, medium plus 10 μg/ml concanavalin A.
Two plates were created for each subject at each collection point. One plate was incubated for 2 days at 37° C. in a humidified 5% CO2 atmosphere and then RNA was isolated from the pooled contents of the 4 wells of a given condition for a specific patient, and the RNA was stored at −70° C. and subsequently used for quantitative real time PCR analysis of gene expression of 41 immune-related genes.
As noted above, after 2 days of growth of the PBMC in a 37° C. humidified 5% CO2 incubator in a 96-well plate, four wells of a single condition (negative control, positive control, heat-inactivated HSV-1, HSV-1-infected cell extracts, or Candida extract) with cells from a single subject (200 μL in each well) were pooled, and the RNA was immediately isolated with Trizol reagent and chloroform by Qiagen RNeasy MiniElute clean up kit Qiagen cat #74204, according to manufacturer's instructions into a final volume of 13 μL, and then flash frozen on powdered dry ice, and stored at −70° C. in aliquots of 3 μL for RNA quantification and 10 μL for PCR analysis.
RNA was preamplified with the Qiagen RT2 PreAMP cDNA synthesis kit (Ref. 330451) and custom RT2 PreAmp primer mix (Ref. 330141) starting with about 50 ng RNA according to the procedure of RT preamp cDNA synthesis handbook date March 2011, pages 17-20. The amplification reactions (final 120 μL) were frozen at −70° C. and used for qPCR analysis the next day.
qPCR was done with the Qiagen RT PCR profiler gene analysis kit (catalog number 330451) using RT2 Sybr Green Rox qPCR Mastermix (24) (Part 330523) and Custom RT2 PCR array plates (Ref. 330171). For this 675 μL 2×RT2 SYBR green mastermix, 51 μL pre-AMP synthesis reaction, and 623 μL RNase free water were mixed, and then 25 μL of the mixture was added to 48 wells on the left or right half of the custom PCR plate. The PCR instrument was Applied Biosystems 7900HT fast real time PCR. […]

[1] = PBMC + Candida extract, group A day 57 vs day 1 (pre-dose), one topical 2% SADBE dose

CCCCOc1c(OCCCC)c(=O)c1=O [SADBE, 3,4-Dibutoxy-3-cyclobutene-1,2-dione]
LTA ratio of PBMC absolute gene expression day 57/day 1 (Group A, Neg. control): 0.73 | LYZ ratio of PBMC absolute gene expression day 15/day 1 (Group A, Neg. control): 1.18 | LYZ ratio of PBMC absolute gene expression day 57/day 1 (Group A, Neg. control): 0.55 | MX1 ratio of PBMC absolute gene expression day 15/day 1 (Group A, Neg. control): 0.81 | MX1 ratio of PBMC absolute gene expression day 57/day 1 (Group A, Neg. control): 0.47 | NOD1 ratio of PBMC absolute gene expression day 15/day 1 (Group A, Neg. control): 1.14 | NOD1 ratio of PBMC absolute gene expression day 57/day 1 (Group A, Neg. control): 0.87 | SPP1 ratio of PBMC absolute gene expression day 15/day 1 (Group A, Neg. control): 1.35 | SPP1 ratio of PBMC absolute gene expression day 57/day 1 (Group A, Neg. control): 2.38 | STAT1 ratio of PBMC absolute gene expression day 15/day 1 (Group A, Neg. control): 0.86 | STAT1 ratio of PBMC absolute gene expression day 57/day 1 (Group A, Neg. control): 1.29 | STAT4 ratio of PBMC absolute gene expression day 15/day 1 (Group A, Neg. control): 0.94 | STAT4 ratio of PBMC absolute gene expression day 57/day 1 (Group A, Neg. control): 0.88 | TNF ratio of PBMC absolute gene expression day 15/day 1 (Group A, Neg. control): 0.91 | TNF ratio of PBMC absolute gene expression day 57/day 1 (Group A, Neg. control): 1.15 | TNFSF10 ratio of PBMC absolute gene expression day 15/day 1 (Group A, Neg. control): 0.93 | TNFSF10 ratio of PBMC absolute gene expression day 57/day 1 (Group A, Neg. control): 1 | TNFSF13B ratio of PBMC absolute gene expression day 15/day 1 (Group A, Neg. control): 1.03 | TNFSF13B ratio of PBMC absolute gene expression day 57/day 1 (Group A, Neg. control): 0.67 | CCL2 ratio of PBMC absolute gene expression day 15/day 1 (Group A, Virus): 0.88 | CCL2 ratio of PBMC absolute gene expression day 57/day 1 (Group A, Virus): 1.71 | CCL3 ratio of PBMC absolute gene expression day 15/day 1 (Group A, Virus): 0.84 | CCL3 ratio of PBMC absolute gene expression day 57/day 1 (Group A, Virus): 3.73 | CCL7 ratio of PBMC absolute gene expression day 15/day 1 (Group A, Virus): 0.72 | CCL7 ratio of PBMC absolute gene expression day 57/day 1 (Group A, Virus): 1.81 | CCR5 ratio of PBMC absolute gene expression day 15/day 1 (Group A, Virus): 0.87 | CCR5 ratio of PBMC absolute gene expression day 57/day 1 (Group A, Virus): 1.35 | CD80 ratio of PBMC absolute gene expression day 15/day 1 (Group A, Virus): 0.79 | CD80 ratio of PBMC absolute gene expression day 57/day 1 (Group A, Virus): 1.25 | CXCL2 ratio of PBMC absolute gene expression day 15/day 1 (Group A, Virus): 0.91 | CXCL2 ratio of PBMC absolute gene expression day 57/day 1 (Group A, Virus): 1.58 | CXCL5 ratio of PBMC absolute gene expression day 15/day 1 (Group A, Virus): 0.94 | CXCL5 ratio of PBMC absolute gene expression day 57/day 1 (Group A, Virus): 2.52 | CXCL9 ratio of PBMC absolute gene expression day 15/day 1 (Group A, Virus): 1.42 | CXCL9 ratio of PBMC absolute gene expression day 57/day 1 (Group A, Virus): 2.5 | CXCL10 ratio of PBMC absolute gene expression day 15/day 1 (Group A, Virus): 0.74 | CXCL10 ratio of PBMC absolute gene expression day 57/day 1 (Group A, Virus): 1.00 | CXCL11 ratio of PBMC absolute gene expression day 15/day 1 (Group A, Virus): 0.34 | CXCL11 ratio of PBMC absolute gene expression day 57/day 1 (Group A, Virus): 0.40 | DDX58 ratio of PBMC absolute gene expression day 15/day 1 (Group A, Virus): 0.66 | DDX58 ratio of PBMC absolute gene expression day 57/day 1 (Group A, Virus): 0.95 | FOXP3 ratio of PBMC absolute gene expression day 15/day 1 (Group A, Virus): 1.27 | FOXP3 ratio of PBMC absolute gene expression day 57/day 1 (Group A, Virus): 2.46 | GATA3 ratio of PBMC absolute gene expression day 15/day 1 (Group A, Virus): 0.89 | GATA3 ratio of PBMC absolute gene expression day 57/day 1 (Group A, Virus): 0.32 | ICAM1 ratio of PBMC absolute gene expression day 15/day 1 (Group A, Virus): 1.01 | ICAM1 ratio of PBMC absolute gene expression day 57/day 1 (Group A, Virus): 1.07 | IFNA1 ratio of PBMC absolute gene expression day 15/day 1 (Group A, Virus): 0.58 | IFNA1 ratio of PBMC absolute gene expression day 57/day 1 (Group A, Virus): 1.34 | IFNB1 ratio of PBMC absolute gene expression day 15/day 1 (Group A, Virus): 0.78 | IFNB1 ratio of PBMC absolute gene expression day 57/day 1 (Group A, Virus): 0.87 | IFNG ratio of PBMC absolute gene expression day 15/day 1 (Group A, Virus): 1.91 | IFNG ratio of PBMC absolute gene expression day 57/day 1 (Group A, Virus): 11.01 | IL1B ratio of PBMC absolute gene expression day 15/day 1 (Group A, Virus): 0.77 | IL1B ratio of PBMC absolute gene expression day 57/day 1 (Group A, Virus): 5.09 | IL1R1 ratio of PBMC absolute gene expression day 15/day 1 (Group A, Virus): 0.74 | IL1R1 ratio of PBMC absolute gene expression day 57/day 1 (Group A, Virus): 0.97 | IL1RN ratio of PBMC absolute gene expression day 15/day 1 (Group A, Virus): 0.77 | IL1RN ratio of PBMC absolute gene expression day 57/day 1 (Group A, Virus): 1.48 | IL2 ratio of PBMC absolute gene expression day 15/day 1 (Group A, Virus): 1.43 | IL2 ratio of PBMC absolute gene expression day 57/day 1 (Group A, Virus): 2.11 | IL4 ratio of PBMC absolute gene expression day 15/day 1 (Group A, Virus): 0.80 | IL4 ratio of PBMC absolute gene expression day 57/day 1 (Group A, Virus): 1.32 | IL5 ratio of PBMC absolute gene expression day 15/day 1 (Group A, Virus): 0.76 | IL5 ratio of PBMC absolute gene expression day 57/day 1 (Group A, Virus): 0.56 | IL8 ratio of PBMC absolute gene expression day 15/day 1 (Group A, Virus): 1.13 | IL8 ratio of PBMC absolute gene expression day 57/day 1 (Group A, Virus): 3.3 | IL10 ratio of PBMC absolute gene expression day 15/day 1 (Group A, Virus): 0.74 | IL10 ratio of PBMC absolute gene expression day 57/day 1 (Group A, Virus): 2.29 | IL12A ratio of PBMC absolute gene expression day 15/day 1 (Group A, Virus): 0.94 | IL12A ratio of PBMC absolute gene expression day 57/day 1 (Group A, Virus): 1.48 | IL12B ratio of PBMC absolute gene expression day 15/day 1 (Group A, Virus): 0.59 | IL12B ratio of PBMC absolute gene expression day 57/day 1 (Group A, Virus): 2.08 | IL13 ratio of PBMC absolute gene expression day 15/day 1 (Group A, Virus): 1.43 | IL13 ratio of PBMC absolute gene expression day 57/day 1 (Group A, Virus): 3.02 | IL15 ratio of PBMC absolute gene expression day 15/day 1 (Group A, Virus): 1.01 | IL15 ratio of PBMC absolute gene expression day 57/day 1 (Group A, Virus): 1.54 | IL16 ratio of PBMC absolute gene expression day 15/day 1 (Group A, Virus): 0.84 | IL16 ratio of PBMC absolute gene expression day 57/day 1 (Group A, Virus): 0.82 | JAK2 ratio of PBMC absolute gene expression day 15/day 1 (Group A, Virus): 0.84 | JAK2 ratio of PBMC absolute gene expression day 57/day 1 (Group A, Virus): 1.26 | LTA ratio of PBMC absolute gene expression day 15/day 1 (Group A, Virus): 1.26 | LTA ratio of PBMC absolute gene expression day 57/day 1 (Group A, Virus): 1.84 | LYZ ratio of PBMC absolute gene expression day 15/day 1 (Group A, Virus): 1.04 | LYZ ratio of PBMC absolute gene expression day 57/day 1 (Group A, Virus): 0.53 | MX1 ratio of PBMC absolute gene expression day 15/day 1 (Group A, Virus): 0.49 | MX1 ratio of PBMC absolute gene expression day 57/day 1 (Group A, Virus): 0.66 | NOD1 ratio of PBMC absolute gene expression day 15/day 1 (Group A, Virus): 0.85 | NOD1 ratio of PBMC absolute gene expression day 57/day 1 (Group A, Virus): 1.14 | SPP1 ratio of PBMC absolute gene expression day 15/day 1 (Group A, Virus): 1.64 | SPP1 ratio of PBMC absolute gene expression day 57/day 1 (Group A, Virus): 15.29 | STAT1 ratio of PBMC absolute gene expression day 15/day 1 (Group A, Virus): 0.80 | STAT1 ratio of PBMC absolute gene expression day 57/day 1 (Group A, Virus): 1.41 | STAT4 ratio of PBMC absolute gene expression day 15/day 1 (Group A, Virus): 1.03 | STAT4 ratio of PBMC absolute gene expression day 57/day 1 (Group A, Virus): 1.69 | TNF ratio of PBMC absolute gene expression day 15/day 1 (Group A, Virus): 0.97 | TNF ratio of PBMC absolute gene expression day 57/day 1 (Group A, Virus): 1.19 | TNFSF10 ratio of PBMC absolute gene expression day 15/day 1 (Group A, Virus): 0.68 | TNFSF10 ratio of PBMC absolute gene expression day 57/day 1 (Group A, Virus): 1.01 | TNFSF13B ratio of PBMC absolute gene expression day 15/day 1 (Group A, Virus): 0.77 | TNFSF13B ratio of PBMC absolute gene expression day 57/day 1 (Group A, Virus): 1.23 | Ratio of absolute IFNG gene expression in group A vs. Groups B + C pooled (HSV-infected cell extracts): 1.896 | Ratio of absolute IFNG gene expression in group A vs. Groups B + C pooled (Neg Control medium): 1.190 | ratio of absolute expression in A57 vs. A1: CCL2 [1]: 1.16 | ratio of absolute expression in A57 vs. A1: CCL3 [1]: 1.79 | ratio of absolute expression in A57 vs. A1: CCL7 [1]: 2.03 | ratio of absolute expression in A57 vs. A1: CCR5 [1]: 1.42 | ratio of absolute expression in A57 vs. A1: CD80 [1]: 1.57 | ratio of absolute expression in A57 vs. A1: CXCL2 [1]: 1.1 | ratio of absolute expression in A57 vs. A1: CXCL5 [1]: 1.45 | ratio of absolute expression in A57 vs. A1: CXCL9 [1]: 14.21 | ratio of absolute expression in A57 vs. A1: CXCL10 [1]: 12.8 | ratio of absolute expression in A57 vs. A1: CXCL11 [1]: 2.53 | ratio of absolute expression in A57 vs. A1: DDX58 [1]: 1.29
